Test results as given in patent publication US20230295162A1 (EÖTVÖS LORÁND TUDOMÁNYEGYETEM, priority 2020, published 2023).
Where two headings read alike, the source gives them in different places.

Legend:
[1] = system: Panc-1 human cell line; assay: Cytotoxicity on Panc-1, xCELLigence SP, IC50 after 24 h, 48 h, 72 h and 96 h (Example 22)
[2] = system: MIA PaCa-2 (pancreas, carcinoma) cells; assay: Cell viability assay, CellTiter-Glo (Example 21); format: cell-based, human; settings: 72 h treatment
Experimental: (§1) Effect of the selected compounds on cancer cell viability was measured via CellTiter-Glo® luminescent cell viability assay (Promega, Madison, WI, USA) according to the manufacturer's instructions. Cells were plated onto a flat-bottomed, white 96 well plate (BRANDplates®, cat. no.: 781965). Density of the seeded cells was optimized based on their size and growth rate, as the follows: Panc-1:750 cells/well; DU 145, PC-3, Capan-1, MIA PaCa-2, SCC-25, FaDu and EBC-1: 1000 cells/well; LNCaP, Detroit 562, MDA-MB-231 and MDA-MB-453 1500 cells/well. […] After the treatment, the luminescence signal was recorded using a microplate reader (BioTek Synergy 2 Multi-Mode Reader, BioTek, Winooski, VT, USA). Dose-response curves were generated by GraphPad Prism 8.4.2. software using a non-linear regression model (variable slope, four parameters), (see FIGS. 12-51).

[3] = system: PC-3 (prostate, adenocarcinoma) cells; assay: Cell viability assay, CellTiter-Glo (Example 21); format: cell-based, human; settings: 72 h treatment
Experimental: as §1

[4] = system: FaDu (pharynx, squamous cell carcinoma) cells; assay: Cell viability assay, CellTiter-Glo (Example 21); format: cell-based, human; settings: 72 h treatment
Experimental: as §1

[5] = system: Panc-1 (pancreas, carcinoma) cells; assay: Cell viability assay, CellTiter-Glo (Example 21); format: cell-based, human; settings: 72 h treatment
Experimental: as §1

[6] = system: LNCaP (prostate, carcinoma) cells; assay: Cell viability assay, CellTiter-Glo (Example 21); format: cell-based, human; settings: 72 h
Experimental: as §1

[7] = system: MDA-MB-453 (breast, carcinoma) cells; assay: Cell viability assay, CellTiter-Glo (Example 21); format: cell-based, human; settings: 72 h treatment
Experimental: as §1

[8] = system: EBC-1 (lung, squamous cell carcinoma) cells; assay: Cell viability assay, CellTiter-Glo (Example 21); format: cell-based, human; settings: 72 h treatment
Experimental: as §1

[9] = system: Detroit 562 (pharynx, carcinoma) cells; assay: Cell viability assay, CellTiter-Glo (Example 21); format: cell-based, human; settings: 72 h treatment
Experimental: as §1

[10] = system: SCC-25 (tongue, squamous cell carcinoma) cells; assay: Cell viability assay, CellTiter-Glo (Example 21); format: cell-based, human; settings: 72 h treatment
Experimental: as §1

[11] = system: Capan-1 (pancreas, adenocarcinoma) cells; assay: Cell viability assay, CellTiter-Glo (Example 21); format: cell-based, human; settings: 72 h treatment
Experimental: as §1

[12] = system: MDA-MB-231 (breast, adenocarcinoma) cells; assay: Cell viability assay, CellTiter-Glo (Example 21); format: cell-based, human; settings: 72 h treatment
Experimental: as §1

[13] = system: DU 145 (prostate, carcinoma) cells; assay: Cell viability assay, CellTiter-Glo (Example 21); format: cell-based, human; settings: 72 h
Experimental: as §1

Which results are given for `[N-]=[N+]=Nc1cccc(CN2CCC3=C(C2)C(=O)N(Cc2ccc(Cl)cc2)C2=NCCN23)c1` [I/133]?
IC50 ([1]; PANC-1, 72 h, read-out: IC50 (72 h) [nM]): 9.05 ± 0.669 nM; IC50 ([1]; PANC-1, 96 h, read-out: IC50 (96 h) [nM]): 4.73 ± 0.109 nM; MIA PaCa-2 (pancreas, carcinoma) cell viability (% of control) ([2]; 3.7 nM): 104.0 ± 17.3 % of control; MIA PaCa-2 (pancreas, carcinoma) cell viability (% of control) ([2]; 11.1 nM): 92.1 ± 13.2 % of control; MIA PaCa-2 (pancreas, carcinoma) cell viability (% of control) ([2]; 100 nM): 18.4 ± 7.8 % of control; MIA PaCa-2 (pancreas, carcinoma) cell viability (% of control) ([2]; 300 nM): 17.4 ± 7.9 % of control; PC-3 (prostate, adenocarcinoma) cell viability (% of control) ([3]; 3.7 nM): 105.6 ± 1.8 % of control; PC-3 (prostate, adenocarcinoma) cell viability (% of control) ([3]; 11.1 nM): 83.5 ± 6.4 % of control; PC-3 (prostate, adenocarcinoma) cell viability (% of control) ([3]; 100 nM): 32.6 ± 3.3 % of control; PC-3 (prostate, adenocarcinoma) cell viability (% of control) ([3]; 300 nM): 32.9 ± 4.6 % of control; FaDu (pharynx, squamous cell carcinoma) cell viability (% of control) ([4]; 3.7 nM): 100.0 ± 6.2 % of control; FaDu (pharynx, squamous cell carcinoma) cell viability (% of control) ([4]; 11.1 nM): 70.7 ± 13.1 % of control; FaDu (pharynx, squamous cell carcinoma) cell viability (% of control) ([4]; 100 nM): 25.3 ± 6.4 % of control; FaDu (pharynx, squamous cell carcinoma) cell viability (% of control) ([4]; 300 nM): 24.6 ± 6.8 % of control; Panc-1 (pancreas, carcinoma) cell viability (% of control) ([5]; 3.7 nM): 108.9 ± 10.2 % of control; Panc-1 (pancreas, carcinoma) cell viability (% of control) ([5]; 11.1 nM): 94.1 ± 4.0 % of control; Panc-1 (pancreas, carcinoma) cell viability (% of control) ([5]; 100 nM): 56.1 ± 3.7 % of control; Panc-1 (pancreas, carcinoma) cell viability (% of control) ([5]; 300 nM): 55.7 ± 2.5 % of control; LNCaP cell viability ([6]; 3.7 nM): 95.9 ± 6.1 % of control; LNCaP cell viability ([6]; 11.1 nM): 33.4 ± 3.1 % of control; LNCaP cell viability ([6]; 100 nM): 12.3 ± 1.1 % of control; LNCaP cell viability ([6]; 300 nM): 13.3 ± 1.2 % of control; MDA-MB-453 (breast, carcinoma) cell viability (% of control) ([7]; 3.7 nM): 108.6 ± 19.7 % of control; MDA-MB-453 (breast, carcinoma) cell viability (% of control) ([7]; 11.1 nM): 50.1 ± 10.6 % of control; MDA-MB-453 (breast, carcinoma) cell viability (% of control) ([7]; 100 nM): 31.9 ± 1.3 % of control; MDA-MB-453 (breast, carcinoma) cell viability (% of control) ([7]; 300 nM): 31.7 ± 0.5 % of control; EBC-1 (lung, squamous cell carcinoma) cell viability (% of control) ([8]; 3.7 nM): 97.1 ± 6.0 % of control; EBC-1 (lung, squamous cell carcinoma) cell viability (% of control) ([8]; 11.1 nM): 60.1 ± 6.7 % of control; EBC-1 (lung, squamous cell carcinoma) cell viability (% of control) ([8]; 100 nM): 23.2 ± 0.7 % of control; EBC-1 (lung, squamous cell carcinoma) cell viability (% of control) ([8]; 300 nM): 22.2 ± 1.3 % of control; Detroit 562 (pharynx, carcinoma) cell viability (% of control) ([9]; 3.7 nM): 47.1 ± 16.0 % of control; Detroit 562 (pharynx, carcinoma) cell viability (% of control) ([9]; 11.1 nM): 31.1 ± 6.5 % of control; Detroit 562 (pharynx, carcinoma) cell viability (% of control) ([9]; 100 nM): 28.8 ± 3.6 % of control; Detroit 562 (pharynx, carcinoma) cell viability (% of control) ([9]; 300 nM): 31.3 ± 4.1 % of control; SCC-25 (tongue, squamous cell carcinoma) cell viability (% of control) ([10]; 3.7 nM): 102.3 ± 4.2 % of control; SCC-25 (tongue, squamous cell carcinoma) cell viability (% of control) ([10]; 11.1 nM): 72.9 ± 3.0 % of control; SCC-25 (tongue, squamous cell carcinoma) cell viability (% of control) ([10]; 100 nM): 34.7 ± 4.9 % of control; SCC-25 (tongue, squamous cell carcinoma) cell viability (% of control) ([10]; 300 nM): 40.9 ± 3.7 % of control; Capan-1 (pancreas, adenocarcinoma) cell viability (% of control) ([11]; 3.7 nM): 108.3 ± 8.3 % of control; Capan-1 (pancreas, adenocarcinoma) cell viability (% of control) ([11]; 11.1 nM): 98.8 ± 7.9 % of control; Capan-1 (pancreas, adenocarcinoma) cell viability (% of control) ([11]; 100 nM): 32.6 ± 4.0 % of control; Capan-1 (pancreas, adenocarcinoma) cell viability (% of control) ([11]; 300 nM): 34.0 ± 2.8 % of control; MDA-MB-231 (breast, adenocarcinoma) cell viability (% of control) ([12]; 3.7 nM): 101.4 ± 2.0 % of control; MDA-MB-231 (breast, adenocarcinoma) cell viability (% of control) ([12]; 11.1 nM): 100.4 ± 2.9 % of control; MDA-MB-231 (breast, adenocarcinoma) cell viability (% of control) ([12]; 100 nM): 58.2 ± 2.5 % of control; MDA-MB-231 (breast, adenocarcinoma) cell viability (% of control) ([12]; 300 nM): 56.4 ± 3.5 % of control; DU 145 cell viability ([13]; 3.7 nM): 98.8 ± 6.7 % of control; DU 145 cell viability ([13]; 11.1 nM): 45.7 ± 4.4 % of control; DU 145 cell viability ([13]; 100 nM): 8.0 ± 2.0 % of control; DU 145 cell viability ([13]; 300 nM): 8.1 ± 2.6 % of control
